Assay results published in patent US12209144B2, “Cyclic peptides as proprotein convertase subtilisin/kexin type 9 (PCSK9) inhibitors for the treatment of metabolic disorders” (Novartis AG, priority 2018, dated 2025).
Bridge positions count the residues as written; N and C are the ends. Square brackets hold non-standard residues; d marks the D form. Peptide text beside a SMILES is read from it. Phe(3,4-Cl2) = N[C@@H](Cc1ccc(Cl)c(Cl)c1)C(=O)O; Bip = N[C@@H](Cc1ccc(-c2ccccc2)cc1)C(=O)O; Phe(3-F) = N[C@@H](Cc1cccc(F)c1)C(=O)O; NMeF = CN[C@@H](Cc1ccccc1)C(=O)O; NMeA = CN[C@@H](C)C(=O)O

Each compound was assayed against human PCSK9 (Homo sapiens, UniProt Q8NBP7) (assay: PCSK9 ligand binding assay (TR-FRET): interference with binding of human PCSK9 to human LDLR). Settings: PCSK9 FRET assay, efficacy (Amax); 0% = DMSO, 100% = 1 uM unlabeled human PCSK9.
human PCSK9, sequence (Q8NBP7 153-692): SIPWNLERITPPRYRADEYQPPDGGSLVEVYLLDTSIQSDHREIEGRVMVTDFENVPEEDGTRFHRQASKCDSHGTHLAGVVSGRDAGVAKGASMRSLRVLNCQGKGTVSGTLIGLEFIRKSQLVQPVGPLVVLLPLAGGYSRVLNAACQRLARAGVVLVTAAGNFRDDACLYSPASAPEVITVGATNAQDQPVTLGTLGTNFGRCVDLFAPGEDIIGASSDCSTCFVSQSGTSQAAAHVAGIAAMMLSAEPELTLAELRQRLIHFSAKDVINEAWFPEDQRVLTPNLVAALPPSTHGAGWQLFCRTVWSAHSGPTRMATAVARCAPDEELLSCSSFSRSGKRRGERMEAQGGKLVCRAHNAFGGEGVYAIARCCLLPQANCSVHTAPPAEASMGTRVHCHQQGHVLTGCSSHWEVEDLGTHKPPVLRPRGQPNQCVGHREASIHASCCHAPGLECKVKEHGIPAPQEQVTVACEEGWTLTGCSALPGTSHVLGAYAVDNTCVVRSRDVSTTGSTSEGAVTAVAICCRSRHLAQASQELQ
human PCSK9, sequence (Q8NBP7 31-152 partner limits assumed): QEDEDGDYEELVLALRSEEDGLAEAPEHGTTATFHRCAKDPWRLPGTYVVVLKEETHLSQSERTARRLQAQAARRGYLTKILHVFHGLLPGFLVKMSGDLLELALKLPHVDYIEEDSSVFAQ
Protocol: The activity of cyclic polypeptides according to the disclosure as PCSK9 can be assessed using a time resolved fluorescence resonance energy transfer (TR-FRET) assay. This time resolved fluorescence resonance energy transfer (TR-FRET) assay measures the ability of a cyclic polypeptides of the disclosure to interfere with the binding of human PCSK9 to human LDLR, providing measures of both potency (IC50) and efficacy (Amax).
Solutions of varying concentrations are prepared by diluting a cyclic polypeptide of the disclosure in dimethylsulfoxide (DMSO) and the resulting solutions are pipetted into a plate. DMSO is used as a negative control. An intermediate plate is prepared in by transferring a known amount of each polypeptide solution and of the control from the compound plate into a corresponding well containing assay buffer and mixing thoroughly. A third plate is then prepared to be used for the assay by adding Human PCSK9 Alexa Fluor 647, followed by a known amount of each solution from the intermediate plate. Unlabeled human PCSK9 in assay buffer containing DMSO is used as a positive control for the assay. Following incubation, Human LDLR extracellular domain-Europium Kryptate is added to each well of the assay plate and the resulting mixture is incubated for an additional period of time. The TR-FRET signal is measured and the FRET ratio (FRET/Europium) is used to calculate the IC50 and Amax of the cyclic polypeptides.
The PCSK9 binding of the cyclic polypeptides of the disclosure were measured using a time resolved fluorescence resonance energy transfer (TR-FRET) assay. This time resolved fluorescence resonance energy transfer (TR-FRET) assay measures the ability of a cyclic polypeptide of the disclosure to interfere with the binding of human PCSK9 to human LDLR, providing measures of both potency (IC50) and efficacy (Amax).
• Human PCSK9 • Human PCSK9 Alexa Fluor 647 • Human LDLR extracellular domain-Europium Kryptate • Proxi plate-low volume assay plate (PerkinElmer #6008280) • Greiner V-bottom (Greiner BioOne #781280) • Assay Buffer • 20 mM HEPES, pH 7.5 • 150 mM NaCl • 1 mM CaCl2 • 0.01% v/v Tween20 • 0.01% w/v BSA
A master compound plate was prepared in a Greiner V bottom plate by diluting cyclic polypeptides of the disclosure in dimethylsulfoxide to the correct concentration for the desired top concentration based on the desired final concentration: for a 30 uM final concentration the master plate concentration is 1.5 mM (68 uL DMSO+12 uL 10 mM of a cyclic polypeptide of the disclosure), for a 10 uM final concentration the master plate concentration is 0.5 mM (76 uL DMSO+4 uL 10 mM of a cyclic polypeptide of the disclosure), for a 3 uM final concentration the master plate concentration is 150 uM (69 uL DMSO+1 uL 10 mM a cyclic peptide of the disclosure). These solutions were pipetted into columns 1 and 11 of the compound plate. Threefold serial dilutions were generated in columns 2-10 and 12-20 of the compound plate by transferring 10 uL into 20 μL of DMSO. Columns 21 and 22 of the compound plate were negative controls containing DMSO alone.
An intermediate plate was generated in a Greiner V bottom plate by transferring 8 uL from each well of the master plate into a corresponding well containing 92 μL of assay buffer and mixing thoroughly.
A Proxi plate-low volume assay plate was used for the assay. To all wells of the plate was added 10 μL of 16 nM Human PCSK9 Alexa Fluor 647, followed by 5 uL from the intermediate plate. […] Following a 30 minute incubation, 5 μL of 4 nM Human LDLR extracellular domain-Europium Kryptate was added and the mixture was incubated for an additional 2 hours.
The TR-FRET signal was measured on an EnVision or PheraStar instrument with a […] delay, 330 nm excitation and 665 nm emission (FRET), and 330 nm excitation and 615 nm (Europium). The FRET ratio (FRET/Europium) was used for calculations. […]

Maximum % inhibition	Compound
87%	CC(C)[C@@H]1NC(=O)[C@H](Cc2ccccc2)NC(=O)CSC[C@@H](C(=O)NCC(N)=O)NC(=O)[C@@H]2CCCN2C(=O)[C@H](CO)NC(=O)[C@H](CCC(=O)O)NC(=O)[C@H](C)N(C)C(=O)[C@H](Cc2ccc(-c3ccccc3)cc2)NC(=O)[C@H](Cc2ccccc2)N(C)C(=O)[C@H](CO)NC(=O)[C@H]([C@@H](C)O)NC(=O)[C@H]([C@@H](C)O)NC(=O)[C@H](CO)NC1=O [Example 1-12, Ac*-F-V-S-T-T-S-(N-Me)F-B-(N-Me)A-E-S-P-C*-G-NH2] ({CH2CO}-FVSTTS[NMeF][Bip][NMeA]ESPCG-NH2; thioether N-13)
86%	CC(C)[C@@H]1NC(=O)[C@H](Cc2ccccc2)NC(=O)CSC[C@@H](C(=O)NCC(N)=O)NC(=O)[C@@H]2CCCN2C(=O)[C@H](CO)NC(=O)[C@H](CCC(=O)O)NC(=O)[C@H](C)N(C)C(=O)[C@H](Cc2ccc(-c3ccccc3)cc2)NC(=O)[C@H](Cc2ccccc2)N(C)C(=O)[C@H](Cc2ccc(-c3ccccc3)cc2)NC(=O)[C@H]([C@@H](C)O)NC(=O)[C@H]([C@@H](C)O)NC(=O)[C@H](CO)NC1=O [Example 1-13, Ac*-F-V-S-T-T-B-(N-Me)F-B-(N-Me)A-E-S-P-C*-G-NH2] ({CH2CO}-FVSTT[Bip][NMeF][Bip][NMeA]ESPCG-NH2; thioether N-13)
49%	CC(C)[C@@H]1NC(=O)[C@H](Cc2ccccc2)NC(=O)CSC[C@@H](C(=O)NCC(N)=O)NC(=O)[C@@H]2CCCN2C(=O)[C@H](CCCNC(=N)N)NC(=O)[C@H](CC(=O)O)NC(=O)[C@H](C)N(C)C(=O)[C@H](Cc2ccc(Cl)c(Cl)c2)NC(=O)[C@H](C)N(C)C(=O)[C@H](Cc2ccc(-c3ccccc3)cc2)NC(=O)[C@H]([C@@H](C)O)NC(=O)[C@H]([C@@H](C)O)NC(=O)[C@H](CO)NC1=O [Example 1-14, Ac*-F-V-S-T-T-B-(N-Me)A-(3,4-diCl)F-(N-Me)A-D-R-P-C*-G-NH2] ({CH2CO}-FVSTT[Bip][NMeA][Phe(3,4-Cl2)][NMeA]DRPCG-NH2; thioether N-13)
53%	CC(C)[C@@H]1NC(=O)[C@H](Cc2ccccc2)NC(=O)CSC[C@@H](C(=O)NCC(N)=O)NC(=O)[C@@H]2CCCN2C(=O)[C@H](CCCNC(=N)N)NC(=O)[C@H](CC(=O)O)NC(=O)[C@H](C)N(C)C(=O)[C@H](Cc2cccc(F)c2)NC(=O)[C@H](C)N(C)C(=O)[C@H](Cc2ccc(-c3ccccc3)cc2)NC(=O)[C@H]([C@@H](C)O)NC(=O)[C@H]([C@@H](C)O)NC(=O)[C@H](CO)NC1=O [Example 1-15, Ac*-F-V-S-T-T-B-(N-Me)A-(3-F)F-(N-Me)A-D-R-P-C*-G-NH2] ({CH2CO}-FVSTT[Bip][NMeA][Phe(3-F)][NMeA]DRPCG-NH2; thioether N-13)
91%	CC(C)[C@@H]1NC(=O)[C@H](Cc2ccccc2)NC(=O)CSC[C@@H](C(=O)NCC(N)=O)NC(=O)[C@@H]2CCCN2C(=O)[C@H](C)NC(=O)[C@H](CCC(=O)O)NC(=O)[C@H](C)N(C)C(=O)[C@H](Cc2ccc(-c3ccccc3)cc2)NC(=O)[C@H](Cc2ccccc2)N(C)C(=O)[C@H](C)NC(=O)[C@H]([C@@H](C)O)NC(=O)[C@H]([C@@H](C)O)NC(=O)[C@H](CC(=O)O)NC1=O [Example 1-16, Ac*-F-V-D-T-T-A-(N-Me)F-B-(N-Me)A-E-A-P-C*-G-NH2] ({CH2CO}-FVDTTA[NMeF][Bip][NMeA]EAPCG-NH2; thioether N-13)
91%	CC(C)[C@@H]1NC(=O)[C@H](Cc2ccccc2)NC(=O)CSC[C@@H](C(=O)NCC(N)=O)NC(=O)[C@@H]2CCCN2C(=O)[C@H](CO)NC(=O)[C@H](CCC(=O)O)NC(=O)[C@H](C)N(C)C(=O)[C@H](Cc2ccc(-c3ccccc3)cc2)NC(=O)[C@H](C)N(C)C(=O)[C@H](Cc2ccccc2)NC(=O)[C@H]([C@@H](C)O)NC(=O)[C@H]([C@@H](C)O)NC(=O)[C@H](CC(=O)O)NC1=O [Example 1-17, Ac*-F-V-D-T-T-F-(N-Me)A-B-(N-Me)A-E-S-P-C*-G-NH2] ({CH2CO}-FVDTTF[NMeA][Bip][NMeA]ESPCG-NH2; thioether N-13)
53%	CC(C)[C@@H]1NC(=O)[C@H](Cc2ccccc2)NC(=O)CSC[C@@H](C(=O)NCC(N)=O)NC(=O)[C@@H]2CCCN2C(=O)[C@H](C)NC(=O)[C@H](CCC(N)=O)NC(=O)[C@H](C)N(C)C(=O)[C@H](Cc2ccc(-c3ccccc3)cc2)NC(=O)[C@H](Cc2ccccc2)N(C)C(=O)[C@H](C)NC(=O)[C@H]([C@@H](C)O)NC(=O)[C@H]([C@@H](C)O)NC(=O)[C@H](CC(N)=O)NC1=O [Example 1-18, Ac*-F-V-N-T-T-A-(N-Me)F-B-(N-Me)A-Q-A-P-C*-G-NH2] ({CH2CO}-FVNTTA[NMeF][Bip][NMeA]QAPCG-NH2; thioether N-13)
38%	CC(C)[C@@H]1NC(=O)[C@H](Cc2ccccc2)NC(=O)CSC[C@@H](C(=O)NCC(N)=O)NC(=O)[C@@H]2CCCN2C(=O)[C@H](CCCNC(=N)N)NC(=O)[C@H](CC(=O)O)NC(=O)[C@H](C)N(C)C(=O)[C@H](Cc2ccc(-c3ccccc3)cc2)NC(=O)[C@H](C)N(C)C(=O)[C@H](Cc2ccc(-c3ccccc3)cc2)NC(=O)[C@H]([C@@H](C)O)NC(=O)[C@H]([C@@H](C)O)NC(=O)[C@@H]2CCCN2C1=O [Example 1-19, Ac*-F-V-P-T-T-B-(N-Me)A-B-(N-Me)A-D-R-P-C*-G-NH2] ({CH2CO}-FVPTT[Bip][NMeA][Bip][NMeA]DRPCG-NH2; thioether N-13)
35%	CC(C)[C@@H]1NC(=O)[C@H](Cc2ccccc2)NC(=O)CSC[C@@H](C(=O)NCC(N)=O)NC(=O)[C@@H]2CCCN2C(=O)[C@H](CO)NC(=O)[C@@H]2CCCN2C(=O)[C@H](C)N(C)C(=O)[C@H](Cc2ccc(-c3ccccc3)cc2)NC(=O)[C@H](C)N(C)C(=O)[C@H](Cc2ccc(-c3ccccc3)cc2)NC(=O)[C@H]([C@@H](C)O)NC(=O)[C@H]([C@@H](C)O)NC(=O)[C@H](CO)NC1=O [Example 1-20, Ac*-F-V-S-T-T-B-(N-Me)A-B-(N-Me)A-P-S-P-C*-G-NH2] ({CH2CO}-FVSTT[Bip][NMeA][Bip][NMeA]PSPCG-NH2; thioether N-13)
81%	CC(C)[C@@H]1NC(=O)[C@H](Cc2ccccc2)NC(=O)CSC[C@@H](C(=O)NCC(N)=O)NC(=O)[C@@H]2CCCN2C(=O)[C@H](C)NC(=O)[C@H](CCC(=O)O)NC(=O)[C@H](C)N(C)C(=O)[C@H](Cc2ccc(-c3ccccc3)cc2)NC(=O)[C@H](Cc2ccccc2)N(C)C(=O)[C@H](C)NC(=O)[C@H]([C@@H](C)O)NC(=O)[C@H]([C@@H](C)O)NC(=O)[C@@H]2CCCN2C1=O [Example 1-21, Ac*-F-V-P-T-T-A-(N-Me)F-B-(N-Me)A-E-A-P-C*-G-NH2] ({CH2CO}-FVPTTA[NMeF][Bip][NMeA]EAPCG-NH2; thioether N-13)
49%	CC(C)[C@@H]1NC(=O)[C@H](Cc2ccccc2)NC(=O)CSC[C@@H](C(=O)NCC(N)=O)NC(=O)[C@@H]2CCCN2C(=O)[C@H](C)NC(=O)[C@H](CCCCN)NC(=O)[C@H](C)N(C)C(=O)[C@H](Cc2ccc(-c3ccccc3)cc2)NC(=O)[C@H](C)N(C)C(=O)[C@H](Cc2ccccc2)NC(=O)[C@H]([C@@H](C)O)NC(=O)[C@H]([C@@H](C)O)NC(=O)[C@H](C)NC1=O [Example 1-22, Ac*-F-V-A-T-T-F-(N-Me)A-B-(N-Me)A-K-A-P-C*-G-NH2] ({CH2CO}-FVATTF[NMeA][Bip][NMeA]KAPCG-NH2; thioether N-13)

Same assay, conditions: TR-FRET; Human PCSK9 Alexa Fluor 647 and Human LDLR extracellular domain-Europium Kryptate

IC50	Compound
12 nM	CC(C)[C@@H]1NC(=O)[C@H](Cc2ccccc2)NC(=O)CSC[C@@H](C(=O)NCC(N)=O)NC(=O)[C@@H]2CCCN2C(=O)[C@H](CCCNC(=N)N)NC(=O)[C@H](CC(=O)O)NC(=O)[C@H](C)N(C)C(=O)[C@H](Cc2cccc(F)c2)NC(=O)[C@H](C)N(C)C(=O)[C@H](Cc2ccc(-c3ccccc3)cc2)NC(=O)[C@H]([C@@H](C)O)NC(=O)[C@H]([C@@H](C)O)NC(=O)[C@H](CO)NC1=O [Example 1-15, Ac*-F-V-S-T-T-B-(N-Me)A-(3-F)F-(N-Me)A-D-R-P-C*-G-NH2] ({CH2CO}-FVSTT[Bip][NMeA][Phe(3-F)][NMeA]DRPCG-NH2; thioether N-13)
12 nM	CC(C)[C@@H]1NC(=O)[C@H](Cc2ccccc2)NC(=O)CSC[C@@H](C(=O)NCC(N)=O)NC(=O)[C@@H]2CCCN2C(=O)[C@H](C)NC(=O)[C@H](CCCCN)NC(=O)[C@H](C)N(C)C(=O)[C@H](Cc2ccc(-c3ccccc3)cc2)NC(=O)[C@H](C)N(C)C(=O)[C@H](Cc2ccccc2)NC(=O)[C@H]([C@@H](C)O)NC(=O)[C@H]([C@@H](C)O)NC(=O)[C@H](C)NC1=O [Example 1-22, Ac*-F-V-A-T-T-F-(N-Me)A-B-(N-Me)A-K-A-P-C*-G-NH2] ({CH2CO}-FVATTF[NMeA][Bip][NMeA]KAPCG-NH2; thioether N-13)
